# Counter-ions that a name gives are not always drawn. Activity calls are given as the source filed them.
# Columns and labels:
# Paired box protein Pax-8 = Paired box protein Pax-8 (Homo sapiens, UniProt Q06710); assay: PAX8 transcriptional activity inhibition in RMG-I – RMG-I cells, luciferase, cherry-pick, dose response (AID 687027); assay type: functional, cell-based;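 also: luciferase reporter driven by Pax8 target thyroperoxidase promoter measured by SteadyGlo luminescence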
# [1] = toxicity toward immortalized ovarian surface epithelium – cell-based, plate reader, dry powder samples, cytotoxicity control for PAX8 inhibitor project, dose response (AID 743045); assay type: functional
# [2] = OVCAR-3 cell viability loss – plate reader, dry powder samples, PAX8 inhibitor project, dose response (AID 743044); assay type: functional, cell-based
# [3] = IGROV1 cell killing – plate reader, dry powder samples, PAX8 inhibitor project, dose response (AID 743043); assay type: functional, cell-based; conditions: IGROV-1
# [4] = P. falciparum Dd2 growth inhibitors, dose response, SYBR Green, cherry-picked samples (AID 1159567); assay type: functional, cell-based
# [5] = toxicity to human hepatoma HepG2 cells – cell-based, cherry-picked samples, cytotoxicity control, dose response (AID 1159577); assay type: functional
# [6] = NIH-3T3 fibroblast cytotoxicity, dose response, cytotoxicity control, cell-based, fluorescence, Alamar Blue, secondary assay (AID 2327); assay type: functional;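 also: NIH-3T3 mouse fibroblasts cultured with fluconazole at 8 µg/mL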
# [7] = fluconazole-exposed Candida albicans growth modulators – fluorescence, retest, confirmation (AID 2467); assay type: functional, cell-based
# fMet-Leu-Phe receptor = target: T1, fMet-Leu-Phe receptor (Homo sapiens, UniProt P21462); assay: formyl peptide receptor binders – dose response (AID 519); assay type: functional
# T1 sequence (P21462 whole entry): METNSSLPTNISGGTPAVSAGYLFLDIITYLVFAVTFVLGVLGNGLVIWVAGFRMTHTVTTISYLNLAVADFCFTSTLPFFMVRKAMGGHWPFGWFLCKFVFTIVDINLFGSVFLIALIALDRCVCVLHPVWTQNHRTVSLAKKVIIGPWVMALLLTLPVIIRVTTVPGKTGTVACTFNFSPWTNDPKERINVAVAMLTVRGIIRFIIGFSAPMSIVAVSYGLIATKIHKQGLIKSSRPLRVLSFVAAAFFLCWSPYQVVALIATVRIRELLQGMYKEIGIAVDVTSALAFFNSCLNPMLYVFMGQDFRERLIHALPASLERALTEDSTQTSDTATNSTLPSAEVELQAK
# [8] = A549 cell cytotoxicity, dose response, cytotoxicity control, plate reader, cherry-pick, antagonist series (AID 743412); assay type: functional, cell-based
# [9] = toxicity toward HepG2 liver cells – cell-based, plate reader, cherry-pick, antagonist series, cytotoxicity control, dose response (AID 743416); assay type: functional
# [10] = blockers of bursicon-stimulated LGR2 cAMP reporter – cell-based, HEK293, CRE-luciferase reporter, cherry pick, set 2, dose response (AID 743343); assay type: functional;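 also: transfected cells were stimulated with diluted bursicon conditioned medium after compound addition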
# [11] = blockade of melanocortin 4 receptor signaling – cell-based, plate reader, cherry pick, counter-screen for LGR2 antagonist project, dose response (AID 743444); assay type: functional;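 also: transfected HEK 293 cells stimulated with alpha-MSH peptide; potency of inhibitors of the alpha-MSH evoked signal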
# [12] = viability loss in HEK293 cells – cell-based, plate reader, cherry-picked samples, cytotoxicity control, dose response (AID 743446); assay type: functional
# [13] = target: T2, Fructose-bisphosphate aldolase (Mycobacterium tuberculosis, UniProt P9WQA3); assay: Fluorescence-based biochemical high throughput dose response assay for inhibitors of the fructose-bisphosphate aldolase (FBA) of M. tuberculosis.; assay type: functional
# T2 sequence (P9WQA3 whole entry): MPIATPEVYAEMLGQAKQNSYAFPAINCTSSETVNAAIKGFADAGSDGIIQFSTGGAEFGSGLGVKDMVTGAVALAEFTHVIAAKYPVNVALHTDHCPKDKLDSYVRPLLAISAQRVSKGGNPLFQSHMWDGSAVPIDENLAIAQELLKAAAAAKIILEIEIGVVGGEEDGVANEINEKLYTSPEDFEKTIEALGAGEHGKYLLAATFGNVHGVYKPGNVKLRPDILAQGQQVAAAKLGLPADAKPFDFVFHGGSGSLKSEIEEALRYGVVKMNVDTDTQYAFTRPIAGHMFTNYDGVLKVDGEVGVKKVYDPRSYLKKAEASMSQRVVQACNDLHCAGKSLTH
# [14] = A2780 cell killing – plate reader, dry powder samples, cytotoxicity control, dose response (AID 743046); assay type: functional, cell-based
# [15] = OVCAR8 cell viability loss – plate reader, dry powder samples, PAX8 project, dose response (AID 743197); assay type: functional, cell-based; conditions: OVCAR-8
# [16] = viability loss in HeLa cells – cytotoxicity control for MgcRacGAP inhibitor project, dose response (AID 624300); assay type: functional
# [17] = target: T3, Rac GTPase-activating protein 1 (Homo sapiens, UniProt Q9H0H5); assay: blockers of MgcRacGAP-driven Rac1 GTP hydrolysis – biochemical, ADP Hunter fluorescence, primary and confirmatory, confirmation (AID 624330); assay type: functional
# T3 sequence (Q9H0H5 whole entry): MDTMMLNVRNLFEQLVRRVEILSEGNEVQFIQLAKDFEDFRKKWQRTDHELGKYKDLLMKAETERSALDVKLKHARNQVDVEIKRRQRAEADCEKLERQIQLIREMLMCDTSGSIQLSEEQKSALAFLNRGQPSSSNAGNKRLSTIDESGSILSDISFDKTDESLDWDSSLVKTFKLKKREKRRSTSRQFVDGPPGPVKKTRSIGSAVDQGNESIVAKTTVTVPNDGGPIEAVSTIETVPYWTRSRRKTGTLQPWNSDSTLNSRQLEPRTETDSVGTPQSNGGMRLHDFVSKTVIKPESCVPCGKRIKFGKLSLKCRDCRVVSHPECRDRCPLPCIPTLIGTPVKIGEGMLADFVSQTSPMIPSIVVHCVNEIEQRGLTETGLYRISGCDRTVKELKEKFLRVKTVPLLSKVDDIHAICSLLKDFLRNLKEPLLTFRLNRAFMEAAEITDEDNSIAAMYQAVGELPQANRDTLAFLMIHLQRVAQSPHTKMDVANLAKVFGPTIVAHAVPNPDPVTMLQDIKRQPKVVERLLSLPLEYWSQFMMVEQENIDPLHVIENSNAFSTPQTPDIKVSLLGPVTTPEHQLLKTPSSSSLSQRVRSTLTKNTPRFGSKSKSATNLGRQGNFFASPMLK
# [18] = target: T4, RNA-editing ligase 1, mitochondrial (Trypanosoma brucei brucei, UniProt P86926); assay: inhibition of trypanosome RNA editing ligase – biochemical, fluorescence, Trypanosoma brucei, dose response (AID 1117295); assay type: functional
# T4 sequence (P86926 whole entry): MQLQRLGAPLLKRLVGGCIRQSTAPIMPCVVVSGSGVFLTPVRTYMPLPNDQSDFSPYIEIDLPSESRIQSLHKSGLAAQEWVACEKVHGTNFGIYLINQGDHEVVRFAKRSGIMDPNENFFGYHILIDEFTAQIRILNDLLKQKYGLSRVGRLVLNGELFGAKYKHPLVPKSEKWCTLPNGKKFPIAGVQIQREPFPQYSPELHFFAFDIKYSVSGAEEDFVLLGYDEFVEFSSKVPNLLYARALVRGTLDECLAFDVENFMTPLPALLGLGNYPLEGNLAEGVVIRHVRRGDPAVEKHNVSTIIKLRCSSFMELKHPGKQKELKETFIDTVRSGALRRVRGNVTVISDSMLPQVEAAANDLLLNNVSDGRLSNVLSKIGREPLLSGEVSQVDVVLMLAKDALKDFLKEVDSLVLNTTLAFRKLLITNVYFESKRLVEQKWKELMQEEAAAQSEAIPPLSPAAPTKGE
# [19] = IC50 of Artemis nuclease activity blockers – biochemical, fluorescence intensity, dose response (AID 720701); assay type: functional;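 also: Artemis endonuclease enzyme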
# Cytochrome P450 2C19 = Cytochrome P450 2C19 (Homo sapiens, UniProt P33261); assay: Cytochrome panel assay with activity outcomes. Panel member name: p450-cyp2c19 Compounds with AC50 equal or less than 10 uM are considered active; assay type: functional; conditions: read-out: AC50
# Chain of Cytochrome P450 2C19 (P33261 whole entry, the tested form may be a part): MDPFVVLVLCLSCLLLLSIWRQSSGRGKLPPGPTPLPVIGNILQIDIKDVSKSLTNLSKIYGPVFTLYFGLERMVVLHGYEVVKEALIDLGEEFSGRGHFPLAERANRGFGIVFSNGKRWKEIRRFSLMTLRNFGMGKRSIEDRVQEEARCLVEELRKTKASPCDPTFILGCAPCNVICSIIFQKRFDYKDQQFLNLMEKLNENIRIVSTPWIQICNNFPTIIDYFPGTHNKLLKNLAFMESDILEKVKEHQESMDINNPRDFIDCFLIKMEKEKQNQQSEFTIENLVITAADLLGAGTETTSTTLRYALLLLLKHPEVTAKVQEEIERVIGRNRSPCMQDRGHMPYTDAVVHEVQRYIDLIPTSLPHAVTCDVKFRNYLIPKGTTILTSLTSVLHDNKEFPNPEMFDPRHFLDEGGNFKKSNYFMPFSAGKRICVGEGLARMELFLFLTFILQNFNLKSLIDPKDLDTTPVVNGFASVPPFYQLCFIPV
# [20] = blockers of HIV-1 envelope-mediated cell-cell fusion – cherry-pick, dose response (AID 652057); assay type: functional, cell-based
# [21] = viability loss in CEM21 cells – cell-based, CellTiter-Glo luminescence, cherry-picked, cytotoxicity control for viral fusion inhibitor project, dose response (AID 652042); assay type: functional;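 also: potency for signal decrease meaning cytotoxicity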
# [22] = blockers of HIV-1 ZM109 envelope-driven cell-cell fusion – HeLa effector, CEM target cells, luciferase, cherry-pick, dose response (AID 652058); assay type: functional, cell-based;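 also: luciferase signal from HIV-1 Env mediated cell-cell fusion of effector and target cells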
# [23] = HIV-1 AD8 envelope cell-cell fusion blockers – cherry-pick, dose response (AID 652062); assay type: functional, cell-based;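 also: luciferase signal from cell-cell fusion driven by HIV-1 clade B AD8 Env; potency is for inhibitors of fusion seen as a drop in luminescence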
# HEK293 = assay: EBV LMP1 TES2 canonical NF-kB signalling blockers – cell-based, HEK293, luciferase, cherry-pick, dose response (AID 588343); assay type: functional; conditions: Homo sapiens
# [24] = target: SWI/SNF-related matrix-associated actin-dependent regulator of chromatin subfamily A member 2 (Homo sapiens, UniProt P51531); assay: Luminescence-based cell-based high throughput dose response assay to identify activators of the function of SWI/SNF related, matrix associated, actin dependent regulator of chromatin, subfamily a, member 2 (SMARCA2, BRM).; assay type: functional
# Chain of SWI/SNF-related matrix-associated actin-dependent regulator of chromatin subfamily A member 2 (P51531 whole entry): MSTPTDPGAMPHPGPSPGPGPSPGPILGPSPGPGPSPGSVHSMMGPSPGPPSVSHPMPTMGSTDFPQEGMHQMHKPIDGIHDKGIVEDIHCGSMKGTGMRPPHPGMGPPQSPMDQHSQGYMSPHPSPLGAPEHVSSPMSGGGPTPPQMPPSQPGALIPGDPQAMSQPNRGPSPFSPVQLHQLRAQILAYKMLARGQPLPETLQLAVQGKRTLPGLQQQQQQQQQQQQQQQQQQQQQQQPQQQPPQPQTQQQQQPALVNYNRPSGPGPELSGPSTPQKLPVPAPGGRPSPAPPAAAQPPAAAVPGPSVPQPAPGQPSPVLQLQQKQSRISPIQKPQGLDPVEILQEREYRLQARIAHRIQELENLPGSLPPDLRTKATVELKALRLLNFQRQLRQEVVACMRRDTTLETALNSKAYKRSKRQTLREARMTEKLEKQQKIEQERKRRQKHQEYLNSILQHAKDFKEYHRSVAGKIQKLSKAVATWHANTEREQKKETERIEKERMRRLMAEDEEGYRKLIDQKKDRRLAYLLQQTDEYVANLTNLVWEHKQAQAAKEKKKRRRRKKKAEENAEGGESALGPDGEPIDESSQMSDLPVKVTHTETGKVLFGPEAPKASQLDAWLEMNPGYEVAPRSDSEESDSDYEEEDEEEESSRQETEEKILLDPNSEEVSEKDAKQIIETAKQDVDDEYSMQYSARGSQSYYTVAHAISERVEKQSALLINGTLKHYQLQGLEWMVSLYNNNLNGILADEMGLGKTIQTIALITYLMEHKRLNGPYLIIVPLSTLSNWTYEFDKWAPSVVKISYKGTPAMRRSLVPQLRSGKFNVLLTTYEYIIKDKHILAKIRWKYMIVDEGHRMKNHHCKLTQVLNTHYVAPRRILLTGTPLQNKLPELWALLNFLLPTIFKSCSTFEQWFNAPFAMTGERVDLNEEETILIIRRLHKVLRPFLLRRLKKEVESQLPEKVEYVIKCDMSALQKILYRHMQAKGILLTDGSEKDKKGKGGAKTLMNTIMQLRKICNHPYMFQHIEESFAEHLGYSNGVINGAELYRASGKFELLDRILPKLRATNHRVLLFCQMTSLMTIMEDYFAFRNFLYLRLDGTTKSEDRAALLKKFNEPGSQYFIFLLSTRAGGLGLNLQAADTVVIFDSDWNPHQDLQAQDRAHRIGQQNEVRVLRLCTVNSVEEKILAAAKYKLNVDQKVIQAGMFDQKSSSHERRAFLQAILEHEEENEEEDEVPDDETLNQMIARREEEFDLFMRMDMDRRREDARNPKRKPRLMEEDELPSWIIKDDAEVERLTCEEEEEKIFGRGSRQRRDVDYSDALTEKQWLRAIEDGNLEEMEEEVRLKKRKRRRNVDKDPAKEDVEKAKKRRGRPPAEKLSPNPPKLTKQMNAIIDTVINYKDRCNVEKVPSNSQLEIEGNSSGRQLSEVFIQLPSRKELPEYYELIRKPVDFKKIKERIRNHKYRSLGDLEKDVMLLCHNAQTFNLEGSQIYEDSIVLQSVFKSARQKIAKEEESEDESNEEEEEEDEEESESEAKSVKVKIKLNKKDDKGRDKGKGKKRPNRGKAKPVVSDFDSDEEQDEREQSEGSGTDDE
# [25] = Counterscreen for activators of the function of SWI/SNF related, matrix associated, actin dependent regulator of chromatin, subfamily a, member 2 (SMARCA2, BRM): Luminescence-based cell-based high throughput dose response assay to identify non-selective compounds using the VP16 reporter assay.; assay type: functional
# [26] = IC50 of insulin release inhibition, rat insulinoma INS-1E line, 5 mM glucose, cell-based (AID 1117331); assay type: functional
# cells = assay type: functional, cell-based; conditions: INS-1E
# [27] = tested on: Streptococcus sp. 'group A'; assay: Streptococcus pyogenes SK(-)GAS viability under kanamycin – luminescence, BacTiterGlo, confirmation, counter-screen for streptokinase expression inhibitor project, dose response (AID 1900); assay type: functional, organism-based
# Streptococcus = assay: GAS UMAA2166 growth inhibition – luminescence, BacTiterGlo, counter-screen for streptokinase expression inhibitor project, dose response (AID 1915); assay type: functional, organism-based;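 also: potency for reduction of bacterial viability or growth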
# Chain of Paired box protein Pax-8 (Q06710 whole entry): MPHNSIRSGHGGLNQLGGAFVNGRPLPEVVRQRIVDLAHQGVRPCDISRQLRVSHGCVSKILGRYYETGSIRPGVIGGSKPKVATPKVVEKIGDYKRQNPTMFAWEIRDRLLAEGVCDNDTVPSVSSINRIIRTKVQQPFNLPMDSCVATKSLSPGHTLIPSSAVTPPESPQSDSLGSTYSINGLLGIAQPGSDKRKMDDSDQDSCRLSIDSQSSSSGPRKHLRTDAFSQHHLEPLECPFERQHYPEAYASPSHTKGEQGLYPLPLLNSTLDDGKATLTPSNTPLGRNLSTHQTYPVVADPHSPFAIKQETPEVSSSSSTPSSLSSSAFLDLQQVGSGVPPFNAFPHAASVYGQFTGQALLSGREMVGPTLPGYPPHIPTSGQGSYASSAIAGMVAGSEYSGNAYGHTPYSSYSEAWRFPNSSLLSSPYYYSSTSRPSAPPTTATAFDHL
compound,measurement,setting,value
O=C(Nc1ccc(F)cc1)N1CCCCN2[C@@H](CO)[C@@H](c3ccc(C#Cc4ccccc4)cc3)[C@@H]2C1,AC50,Paired box protein Pax-8,18.7 µM (active)
same,AC50,[1],55.1 µM (active)
same,AC50,[2],19.2 µM (active)
same,AC50,[3],21 µM (active)
same,AC50,[4],2.61 µM (active)
same,AC50,[5],7.97 µM (active)
COCCN1C(=O)C(O)=C(C(=O)c2ccco2)C1c1cccc(Oc2ccccc2)c1 (stereo unspecified),EC50,[6],> 150 µM (inactive)
same,EC50,[7],4.35 µM (active)
same,Ki,fMet-Leu-Phe receptor,56 µM (inactive)
Cn1nnnc1Sc1ncnc2scc(-c3ccc([N+](=O)[O-])cc3)c12,AC50,Paired box protein Pax-8,2.57 µM (active)
same,AC50,[8],6.71 µM (active)
same,AC50,[9],7.05 µM (active)
same,AC50,[10],6.25 µM (active)
same,AC50,[11],5.32 µM (active)
same,AC50,[12],6.48 µM (active)
CC(=O)N1CCN(C(=O)c2cc(-c3ccc(Cl)s3)nc3ccccc23)CC1,IC50,[13],1.17 µM (active)
C[C@@H]1CCCCO[C@H](CN(C)C(=O)C2CCCCC2)[C@H](C)CN([C@@H](C)CO)C(=O)c2cc(NS(=O)(=O)c3ccc(Cl)cc3)ccc2O1,AC50,Paired box protein Pax-8,10.8 µM (active)
same,AC50,[14],43.4 µM (active)
same,AC50,[2],45.3 µM (active)
same,AC50,[15],56.9 µM (active)
COc1ccc2c(CN3CCCC3)cc(=O)oc2c1,IC50,[13],2.52 µM (active)
Cc1cc(C)c(OCCCCNCc2ccccc2)c(Cl)c1,CC50,[16],69.7 µM (active)
same,IC50,[17],91.9 µM (active)
COC(=O)C1=C(C)N(Cc2ccc(C(F)(F)F)cc2)C(NCc2ccccc2C(F)(F)F)=NC1c1ccccc1C(F)(F)F (stereo unspecified),IC50,[18],> 96.6 µM (inactive)
COC(=O)C1=C(C)N(Cc2ccc(C(F)(F)F)cc2)C(NCc2ccccc2C(F)(F)F)=NC1c1ccccc1 (stereo unspecified),IC50,[18],> 96.6 µM (inactive)
O=[N+]([O-])c1ccccc1/C=C/C=N/n1c(S)nnc1-c1ccc(Cl)cc1,IC50,[19],> 20 µM (inactive)
COc1ccc(NC(=O)C(c2ccc(C)cc2)N(C)C(=O)c2cnccn2)cc1 (stereo unspecified),Ki,fMet-Leu-Phe receptor,> 66.7 µM (inactive)
Nc1ncc2c(n1)-c1ccccc1CC2,IC50,[13],1.53 µM (active)
COc1ccc(-n2ncc3c(N4CCC(C)CC4)ncnc32)cc1,AC50,[9],> 52 µM (inactive)
same,AC50,[10],11.6 µM (active)
same,AC50,[11],19.3 µM (active)
same,AC50,[12],> 52 µM (inactive)
COc1ccc(C2C(C(=O)c3ccccc3)=C(O)C(=O)N2CC(C)O)c(OC)c1 (stereo unspecified),AC50,Cytochrome P450 2C19,6.31 µM (inconclusive)
same,Ki,fMet-Leu-Phe receptor,38.6 µM (inactive)
COc1cccc(S(=O)(=O)N(C)C[C@H]2Oc3cc(C4=CCCC4)ccc3S(=O)(=O)N([C@@H](C)CO)C[C@H]2C)c1,AC50,[20],1.87 µM (active)
same,AC50,[21],64.2 µM (active)
same,AC50,[22],1.62 µM (active)
same,AC50,[23],3.01 µM (active)
CN(C)CC(=O)N1C[C@@H]2N[C@H](C1)[C@H]2c1ccc(/C=C/c2ccccc2)cc1,AC50,[4],2.63 µM (active)
same,AC50,[5],11.4 µM (active)
COc1ccc(-c2[nH]ncc2-c2ccc3c(c2)OCCO3)c(O)c1,AC50,HEK293,1.78 µM (active)
same,AC50,[9],> 52 µM (inactive)
same,AC50,[10],2.97 µM (active)
same,AC50,[11],0.723 µM (active)
same,AC50,[12],> 52 µM (inactive)
COCC(=O)N1CCC2(CC1)CN(Cc1ccccc1F)[C@H](CO)c1[nH]c3cc(OC)ccc3c12,AC50,[4],7.02 µM (active)
same,AC50,[5],> 39 µM (inactive)
O=C(CNCc1c(F)cccc1F)N1CCC2(CC1)OCCO2,EC50,[24],> 91.3 µM (inactive)
same,EC50,[25],> 91.3 µM (inactive)
CCCCN1CCCC[C@H]1C(=O)Nc1c(C)cccc1C [LEVOBUPIVACAINE HYDROCHLORIDE],IC50,[26],27.2 µM (inactive)
same,IC50,cells,> 33.3 µM (inactive)
COc1ccccc1/C=C/C(=O)OCC(=O)Nc1ccc(Cl)cn1,EC50,[24],> 91.1 µM (inactive)
same,EC50,[25],> 91.1 µM (inactive)
CC(C)Cn1c2c(c(O)c(C(=O)Nc3ncccc3O)c1=O)CCCC2,EC50,[27],2.97 µM (active)
same,EC50,Streptococcus,3.34 µM (active)
same,IC50,[19],16.3 µM (active)

# — ChEMBL document CHEMBL1201862, “PubChem BioAssay data set” (2004)
